What was measured:
[1] = system: gene expression in CD4+ cells; assay: RNA-seq after YM155 treatment; assay type: cell-based, human
Procedure: (§1) Human peripheral blood mononuclear cells were isolated from venous peripheral blood by density gradient separation on Lymphoprep (Axis-Shield PoC As, Dundee, Scotland). CD4^+ cells were isolated by positive selection (Invitrogen, 11331D), and cultured (1.25×10^6 cells/ml) in wells coated with anti-CD3 antibody (0.5 mg/ml; OKT3, Sigma-Aldrich, Saint Luis, Missouri, USA), in RPMI medium supplemented with 50 μM β-mercaptoethanol (Gibco, Waltham, Massachusetts, USA), Glutamax 2 mM (Gibco), Gentamicin 50 μg/ml (Sanofi-Aventis, Paris, France) and 10% fetal bovine serum (Sigma-Aldrich) at 37°C in a humidified 5% CO2 atmosphere. Cells were treated with survivin inhibitors serpantronium bromide, YM155[22] (YM155, Selleck Chemicals, Houston, TX), as indicated. The cells were stimulated with recombinant IFNg (50 ng/ml; Peprotech, Cranbury, NJ, USA) during the last 2 h and harversted for RNA-seq. Supernatants were used to measure cytokine levels.
RNA from the CD4^+ cell cultures was prepared using the Norgen Total micro mRNA kit (Norgen, Ontario, Canada). Quality control was done by Bioanalyzer RNA6000 Pico on Agilent2100 (Agilent, Santa Clara, CA, USA). Deep sequencing was done by RNAseq (Hiseq2000, Illumina) at the Science for Life Laboratory, Huddinge, Sweden. Raw sequence data were obtained in Bcl-files and converted into fastq text format using the bcl2fastq program from Illumina.
Mapping of transcripts was done using Genome UCSC annotation set for hg38 human genome assembly. Analysis was performed using the core Bioconductor packages in R-studio v.3.6.3. Differentially expressed genes in CD4^+ cells treated with YM155 were identified using DESeq2 (v.1.26.0) with Benjamini-Hochberg adjustment for multiple testing.
Supplementary file mmc2.xlsx: Table S1. Differentially expressed protein coding genes connected to the changeable H3K27me3 peaks in CD4^+ T cells, related to Figure 1 CD4^+ T cells (n=4) were cultured with survivin inhibitor YM155 (0 and 10 ng/ml). Expression was analyzed by RNA-seq and compared by paired DESeq2 test.

[2] = system: XIAP, cIAP2, Bcl-XL, Bcl-2, Bad, p53, cIAP1, STAT3; set-up: method as in 2 sources, ref 22 = [22]; PMID 17804712; doi:10.1158/0008-5472.CAN-07-1343; 22 Nakahara T. Kita A. Yamanaka K. Mori M. Amino N. Takeuchi M. Tominaga F. Hatakeyama S. Kinoyama I. Matsuhisa A. YM155, a novel small-molecule survivin suppressant, induces regression of established ||| ref 23 = [23]; PMID 18927289; doi:10.1158/1078-0432.CCR-08-0468; 23 Iwasa T. Okamoto I. Suzuki M. Nakahara T. Yamanaka K. Hatashita E. Yamada Y. Fukuoka M. Ono K. Nakagawa K. Radiosensitizing effect of YM155, a novel small-molecule survivin suppressant, in non-smal; conditions: cited from earlier work
survivin transcription = system: survivin transcription; set-up: method as in PMID 17804712; conditions: cited from earlier work
[3] = system: H3K27me3 / H3K27ac peaks in CD4+ T cells; assay: ChIP-seq of H3K27me3 and H3K27ac after YM155 treatment; assay type: cell-based, human
Procedure: as §1
For ChIP-seq analysis, CD4^+ cells isolated from 12 women were stimulated with concanavalin A (ConA, 0.625 μg/ml, Sigma-Aldrich), and lipopolysaccharide (LPS) (5 μg/ml, Sigma-Aldrich) for 72 h and pooled in 4 independent samples for DNA purification. After shearing and pre-clearing of chromatin, 1% of the sample was saved as an input. The pre-cleared chromatin was incubated with 2 μg anti-Survivin (10811, Santa Cruz Biotechnology). For ChIPseq targeting histone modifications CD4^+ cells from 3 healthy women were stimulated with concanavalin A and LPS and treated with sepantronium bromide, YM155, 0 or 10 ng/ml, for 24 h. The chromatin was pre-cleared on the beads coated with Sepharose A and incubated with anti-H3K27ac (C15410196, Diagenode), or anti-H3K27me3 (C15410195, Diagenode). The cells were cross-linked and lysed with the EpiTect ChIP OneDay kit (Qiagen), as recommended by the manufacturer. After sonication to shear the chromatin, cellular debris was removed by pelleting. After pre-clearing, 1% of the sample was saved as an input fraction and used as background for nonspecific chromatin binding. Pre-cleared chromatin was incubated with 2 μg of anti-survivin (10811, Santa Cruz Biotechnology, Santa Cruz, CA, USA). The immune complexes were washed, the cross-links were reversed, and the DNA was purified with the EpiTect ChIP OneDay kit (Qiagen) as recommended by the manufacturer. The quality of purified DNA was assessed with TapeStation (Agilent, Santa Clara, CA, USA). DNA libraries were prepared with ThruPLEX (Rubicon) and sequenced with a Hiseq2000 sequencing system (Illumina) according to the manufacturer’s protocols. Bcl-files were converted and demultiplexed to fastq with bcl2fastq (Illumina).
The fastq sequencing files were mapped to the human reference genome (hg38) using the STAR aligner[58] with default parameters apart from setting the alignIntronMax flag to 1 for end-to-end mapping. Quality control of the sequenced material was performed by FastQC tool using MultiQC v.0.9dev0 (Babraham Institute, Cambridge, U.K.). Peak calling was performed using the default parameters. Peaks were identified for enrichment of the immunoprecipitation fraction against input (adjusted p < 10^−5) and annotated by HOMER software[59] in standard mode to closest transcription start site (TSS). Peaks with overlapping localization by at least 1 nucleotide in several samples were merged and further on referred to as one peak. […]

Compound: COCCn1c2c([n+](Cc3cnccn3)c1C)C(=O)c1ccccc1C2=O [YM155, sepantronium bromide]
- caudal HOX-B gene expression (in words) ([1]; HOX-B8, -B9, and -B13, YM155, CD4+ cells): a change of the HOX-B genes, which was clearly seen in the caudal HOX-B8, -B9, and -B13 genes
- number of genes downregulated (of 157) ([1]; genes connected to changed H3K27me3 peaks, YM155-treated CD4+ cells): 100
- number of protein-coding genes with significantly changed mRNA levels ([1]; genes connected to regulatory elements at changed H3K27me3 peaks, nominal p < 0.01, YM155-treated CD4+ cells): 157
- effect on expression of XIAP, cIAP2, Bcl-XL, Bcl-2, Bad (in words) [2]: does not change the expression
- effect on expression of p53, cIAP1, STAT3 (in words) [2]: does not change the expression
- effect on survivin transcription (in words) (survivin transcription): specifically inhibits survivin transcription
- H3K27 acetylation after survivin inhibition (in words) ([3]; CD4+ T cells, YM155 10 ng/ml, 24 h): virtually unaffected
- proportion of H3K27me3 peaks with increased H3K27me3 deposition ([3]; CD4+ T cells, YM155 10 ng/ml, 24 h, ConA/LPS stimulated): 85%
- increase in tag counts, middle H3K27me3 peak (first) ([3]; HOX-B cluster, chromosome 17): 51%
- increase in tag counts, middle H3K27me3 peak (second) ([3]; HOX-B cluster, chromosome 17): 69%
- number of H3K27me3 peaks that increased the count by 30% ([3]; YM155-treated CD4+ cell cultures): 7413

— publication PMC10391610, “Survivin prevents the polycomb repressor complex 2 from methylating histone 3 lysine 27” (iScience, 2023)
